Columns and labels:
Test in all cases: relative viability (nuclei count vs DMSO), 5 days (fraction); higher = more cells survive
A-427 = system: A-427
Summary of the method: (§1)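 Five library-drug doses in √10 steps were combined with a fixed anchor-drug dose, or a single drug was given alone, by pin tool to lung cancer cell lines in 1536-well plates the day after seeding. Nuclei were stained and counted after 5 days. Relative viability is the nuclei count in treated wells over that in vehicle wells, taken as the median of duplicate plates.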

ABC-1 = system: ABC-1
Summary of the method: as §1

BEN = system: BEN
Summary of the method: as §1

CAL-12T = system: CAL-12T
Summary of the method: as §1

HARA = system: HARA
Summary of the method: as §1

LCLC-103H = system: LCLC-103H
Summary of the method: as §1

LOU-NH91 = system: LOU-NH91
Summary of the method: as §1

NCI-H1651 = system: NCI-H1651
Summary of the method: as §1

NCI-H1666 = system: NCI-H1666
Summary of the method: as §1

NCI-H1734 = system: NCI-H1734
Summary of the method: as §1

NCI-H1944 = system: NCI-H1944
Summary of the method: as §1

NCI-H1975 = system: NCI-H1975
Summary of the method: as §1

NCI-H2085 = system: NCI-H2085
Summary of the method: as §1

NCI-H2126 = system: NCI-H2126
Summary of the method: as §1

NCI-H460 = system: NCI-H460
Summary of the method: as §1

NCI-H520 = system: NCI-H520
Summary of the method: as §1

NCI-H596 = system: NCI-H596
Summary of the method: as §1

NCI-H647 = system: NCI-H647
Summary of the method: as §1

NCI-H661 = system: NCI-H661
Summary of the method: as §1

NCI-H727 = system: NCI-H727
Summary of the method: as §1

NCI-H838 = system: NCI-H838
Summary of the method: as §1

RERF-LC-KJ = system: RERF-LC-KJ
Summary of the method: as §1

`Cc1csc(=NC2CCCCC2)n1/N=C/c1ccc(O)c(O)c1O` [MIM1] + CS(=O)(=O)N1CCN(Cc2cc3nc(-c4cccc5[nH]ncc45)nc(N4CCOCC4)c3s2)CC1 [Pictilisib] (partner 1 µM) was tested, and the relative viability (A-427; first compound 0.2 µM) was 0.659, the relative viability (A-427; first compound 0.6325 µM) was 0.469 and the relative viability (A-427; first compound 2 µM) was 0.671. It also gave a relative viability (A-427; first compound 6.325 µM) of 0.743, a relative viability (A-427; first compound 20 µM) of 0.214 and a relative viability (ABC-1; first compound 0.2 µM) of 0.547. It also gave a relative viability (ABC-1; first compound 0.6325 µM) of 0.852, a relative viability (ABC-1; first compound 2 µM) of 0.722 and a relative viability (ABC-1; first compound 6.325 µM) of 0.286. The relative viability (ABC-1; first compound 20 µM) was 0.286, the relative viability (BEN; first compound 0.2 µM) was 0.607 and the relative viability (BEN; first compound 0.6325 µM) was 0.594. The relative viability (BEN; first compound 2 µM) was 0.604, the relative viability (BEN; first compound 6.325 µM) was 0.531 and the relative viability (BEN; first compound 20 µM) was 0.279. The relative viability (CAL-12T; first compound 0.2 µM) was 0.394, the relative viability (CAL-12T; first compound 2 µM) was 0.473 and the relative viability (CAL-12T; first compound 6.325 µM) was 0.453. It also gave a relative viability (CAL-12T; first compound 20 µM) of 0.233, a relative viability (HARA; first compound 0.2 µM) of 0.333 and a relative viability (HARA; first compound 0.6325 µM) of 0.328. It also gave a relative viability (HARA; first compound 2 µM) of 0.476, a relative viability (HARA; first compound 6.325 µM) of 0.307 and a relative viability (HARA; first compound 20 µM) of 0.124. It also gave a relative viability (LCLC-103H; first compound 0.2 µM) of 0.721, a relative viability (LCLC-103H; first compound 0.6325 µM) of 0.574 and a relative viability (LCLC-103H; first compound 2 µM) of 0.608. For the same molecule, the relative viability (LCLC-103H; first compound 6.325 µM) was 0.631, the relative viability (LCLC-103H; first compound 20 µM) was 0.59 and the relative viability (LOU-NH91; first compound 0.2 µM) was 0.534. For the same molecule, the relative viability (LOU-NH91; first compound 0.6325 µM) was 0.524, the relative viability (LOU-NH91; first compound 2 µM) was 0.47 and the relative viability (LOU-NH91; first compound 6.325 µM) was 0.506. For the same molecule, the relative viability (LOU-NH91; first compound 20 µM) was 0.382, the relative viability (NCI-H1651; first compound 0.2 µM) was 0.646 and the relative viability (NCI-H1651; first compound 0.6325 µM) was 0.646. It also gave a relative viability (NCI-H1651; first compound 2 µM) of 0.75, a relative viability (NCI-H1651; first compound 6.325 µM) of 0.542 and a relative viability (NCI-H1651; first compound 20 µM) of 0.298. The relative viability (NCI-H1666; first compound 0.2 µM) was 0.605, the relative viability (NCI-H1666; first compound 0.6325 µM) was 0.398 and the relative viability (NCI-H1666; first compound 2 µM) was 0.476. For the same molecule, the relative viability (NCI-H1666; first compound 6.325 µM) was 0.422, the relative viability (NCI-H1666; first compound 20 µM) was 0.311 and the relative viability (NCI-H1734; first compound 0.2 µM) was 0.501. It also gave a relative viability (NCI-H1734; first compound 0.6325 µM) of 0.408, a relative viability (NCI-H1734; first compound 2 µM) of 0.442 and a relative viability (NCI-H1734; first compound 6.325 µM) of 0.351. The relative viability (NCI-H1734; first compound 20 µM) was 0.266, the relative viability (NCI-H1944; first compound 0.2 µM) was 0.394 and the relative viability (NCI-H1944; first compound 0.6325 µM) was 0.335. It also gave a relative viability (NCI-H1944; first compound 2 µM) of 0.296, a relative viability (NCI-H1944; first compound 6.325 µM) of 0.34 and a relative viability (NCI-H1944; first compound 20 µM) of 0.384. The relative viability (NCI-H1975; first compound 0.2 µM) was 0.275, the relative viability (NCI-H1975; first compound 0.6325 µM) was 0.312 and the relative viability (NCI-H1975; first compound 2 µM) was 0.251. The relative viability (NCI-H1975; first compound 6.325 µM) was 0.209, the relative viability (NCI-H1975; first compound 20 µM) was 0.312 and the relative viability (NCI-H2085; first compound 0.2 µM) was 0.441. The relative viability (NCI-H2085; first compound 0.6325 µM) was 0.431, the relative viability (NCI-H2085; first compound 2 µM) was 0.518 and the relative viability (NCI-H2085; first compound 6.325 µM) was 0.461. For the same molecule, the relative viability (NCI-H2085; first compound 20 µM) was 0.631, the relative viability (NCI-H2126; first compound 0.2 µM) was 0.516 and the relative viability (NCI-H2126; first compound 0.6325 µM) was 0.481. For the same molecule, the relative viability (NCI-H2126; first compound 2 µM) was 0.482, the relative viability (NCI-H2126; first compound 6.325 µM) was 0.467 and the relative viability (NCI-H2126; first compound 20 µM) was 0.344. The relative viability (NCI-H460; first compound 0.2 µM) was 0.315, the relative viability (NCI-H460; first compound 0.6325 µM) was 0.348 and the relative viability (NCI-H460; first compound 2 µM) was 0.249. The relative viability (NCI-H460; first compound 6.325 µM) was 0.329, the relative viability (NCI-H460; first compound 20 µM) was 0.274 and the relative viability (NCI-H520; first compound 0.2 µM) was 0.302. For the same molecule, the relative viability (NCI-H520; first compound 0.6325 µM) was 0.287, the relative viability (NCI-H520; first compound 2 µM) was 0.295 and the relative viability (NCI-H520; first compound 6.325 µM) was 0.235. The relative viability (NCI-H520; first compound 20 µM) was 0.246, the relative viability (NCI-H596; first compound 0.2 µM) was 0.419 and the relative viability (NCI-H596; first compound 0.6325 µM) was 0.457. The relative viability (NCI-H596; first compound 2 µM) was 0.406, the relative viability (NCI-H596; first compound 6.325 µM) was 0.352 and the relative viability (NCI-H596; first compound 20 µM) was 0.402. For the same molecule, the relative viability (NCI-H647; first compound 0.2 µM) was 0.379, the relative viability (NCI-H647; first compound 0.6325 µM) was 0.578 and the relative viability (NCI-H647; first compound 6.325 µM) was 0.42. For the same molecule, the relative viability (NCI-H647; first compound 20 µM) was 0.191, the relative viability (NCI-H661; first compound 0.2 µM) was 0.388 and the relative viability (NCI-H661; first compound 0.6325 µM) was 0.367. For the same molecule, the relative viability (NCI-H661; first compound 2 µM) was 0.357, the relative viability (NCI-H661; first compound 6.325 µM) was 0.38 and the relative viability (NCI-H661; first compound 20 µM) was 0.345. The relative viability (NCI-H727; first compound 0.2 µM) was 0.415, the relative viability (NCI-H727; first compound 0.6325 µM) was 0.352 and the relative viability (NCI-H727; first compound 2 µM) was 0.35. For the same molecule, the relative viability (NCI-H727; first compound 6.325 µM) was 0.355, the relative viability (NCI-H727; first compound 20 µM) was 0.122 and the relative viability (NCI-H838; first compound 0.2 µM) was 0.415. For the same molecule, the relative viability (NCI-H838; first compound 0.6325 µM) was 0.468, the relative viability (NCI-H838; first compound 2 µM) was 0.397 and the relative viability (NCI-H838; first compound 6.325 µM) was 0.357. The relative viability (NCI-H838; first compound 20 µM) was 0.2, the relative viability (RERF-LC-KJ; first compound 0.2 µM) was 0.504 and the relative viability (RERF-LC-KJ; first compound 0.6325 µM) was 0.488. The relative viability (RERF-LC-KJ; first compound 2 µM) was 0.484, the relative viability (RERF-LC-KJ; first compound 6.325 µM) was 0.415 and the relative viability (RERF-LC-KJ; first compound 20 µM) was 0.225.
